# Source: PubChem BioAssay (NCI)
# “And” between values parts separate entries of the source, which are not always exact repeats. Equal values may be shown once.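 How tested: cells in 96-well plates exposed to compound for 48 hours at five concentrations. Abbreviation: GI50, concentration required for 50% inhibition of growth. TGI: concentration producing complete growth inhibition.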
# Legend:
# Assay in all cases: DTP human tumour cell line panel, 48 h
# SW-620 colon = tested on: SW-620 colon
# T-47D breast = tested on: T-47D breast
# OVCAR-8 ovarian = tested on: OVCAR-8 ovarian
# NCI-H460 lung = tested on: NCI-H460 lung
# MOLT-4 leukemia = tested on: MOLT-4 leukemia
# NCI-H522 lung = tested on: NCI-H522 lung
# U251 CNS = tested on: U251 CNS
# OVCAR-5 ovarian = tested on: OVCAR-5 ovarian
# M14 melanoma = tested on: M14 melanoma
# 786-0 renal = tested on: 786-0 renal
Structure (SMILES),GI50 (SW-620 colon),TGI (SW-620 colon) [µM],GI50 (T-47D breast),TGI (T-47D breast) [µM],GI50 (OVCAR-8 ovarian),TGI (OVCAR-8 ovarian) [µM],GI50 (NCI-H460 lung) [µM],TGI (NCI-H460 lung) [µM],GI50 (MOLT-4 leukemia),TGI (MOLT-4 leukemia) [µM],GI50 (NCI-H522 lung),TGI (NCI-H522 lung) [µM],GI50 (U251 CNS),TGI (U251 CNS) [µM],GI50 (OVCAR-5 ovarian),TGI (OVCAR-5 ovarian) [µM],GI50 (M14 melanoma),TGI (M14 melanoma),GI50 (786-0 renal) [µM],TGI (786-0 renal) [µM]
COc1cc2c3c(n(CCCN)c(=O)c2cc1OC)-c1ccc(N)cc1C3=O,0.607 µM,11.7,0.842 µM,7.37,2.86 µM,59.1,4.52,16.8,0.527 µM,4.7,780 nM,16.7,0.575 µM,6.84,7.87 µM,> 47.9,2.21 µM,13.7 µM,1.91,5.04
COc1cc(/C=C/c2cc(/C=C/c3ccc(O)c(OC)c3)n(C(=O)Nc3ccc(C)cc3)n2)ccc1O,0.465 µM,3.44,1.14 µM,3.33,0.465 µM,2.59,0.339,1.86,0.291 µM,1.06,235 nM,0.909,0.422 µM,3.48,1.89 µM,5.89,0.287 µM,1.05 µM,0.412,1.81
CN1CCN(C(=O)/C=C/c2ccc([N+](=O)[O-])o2)CC1,15.8 µM,37.1,18.1 µM,45.4,18.5 µM,> 100,14.9,45.1,10.7 µM,93.4,2720 nM,5.74,17.1 µM,55.1,22.3 µM,39.1,3.11 µM,11.7 µM,18.6,36.7
O=C1c2ccccc2-c2c1c1c(O)cccc1n2Cc1ccccc1,38 µM,> 100,7.8 µM,90.2,28.6 µM,> 100,10.3,45.6,> 100 µM,> 100,40000 nM,> 100,15.2 µM,67.1,16.4 µM,51.2,26.7 µM,> 100 µM,15.6,31.9
COc1cc(NC(=O)COc2ccccc2)c(C(N)=O)cc1OC,0.646 µM,> 100,3.46 µM,> 100,3.01 µM,> 100,0.529,> 100,2.91 µM,> 100,410 nM,7.06,0.777 µM,17.9,15 µM,> 100,0.614 µM,> 100 µM,7.32,38.8
CNCc1cccc2c1OCCOCCOCCNS(=O)(=O)c1ccc(cc1)-c1cnc(N)c(n1)C(=O)N2,0.875 µM,3.13,2.05 µM,5.46,1.61 µM,10.4,1,3.25,0.557 µM,7.68,1310 nM,3.15,0.772 µM,2.23,2.72 µM,6.37,1.31 µM,2.71 µM,1.22,2.89
O=C(CC1(O)C(=O)Nc2c(Cl)cc(Cl)cc21)c1cccc([N+](=O)[O-])c1 (stereo not given),,> 64.4,,> 100,,> 83.9,,> 100,,51.5,,> 100,,> 70.8,,> 100,,> 58 µM,,> 59.9
O=C1NC(c2ccccc2Cl)Nc2ccccc21 (stereo not given),,> 30.1,,> 100,,> 100,,> 100,,> 94.4,,72.1,,> 69.7,,> 100,,> 100 µM,,> 100
O=c1c(Oc2ccc(F)cc2F)cc2cnc(NC3CCOCC3)nc2n1C1CC1,> 25 µM,> 25,19.3 µM,> 25,> 25 µM,> 25,> 25,> 25,> 25 µM,> 25,> 25000 nM,> 25,> 25 µM,> 25,> 25 µM,> 25,> 25 µM,> 25 µM,> 25,> 25
CN(C)[C@@H]1C(=O)C(C(=O)NCc2nc3[nH]cnc(=S)c3[nH]2)=C(O)[C@@]2(O)C(=O)C3=C(O)c4c(O)cccc4[C@@](C)(O)[C@H]3C[C@@H]12,17 µM,> 100,1.95 µM,> 100,6.78 µM,> 100,19.1,> 100,5.04 µM,> 100,> 100000 nM,> 100,> 100 µM,> 100,> 100 µM,> 100,1.05 µM,> 100 µM,3.78,> 100
COc1ccccc1CNCCCN1C(=O)c2ccc3c4c(ccc(c24)C1=O)C(=O)N(CCCNCc1ccccc1OC)C3=O,0.0861 µM,0.298,0.188 µM,0.42,0.137 µM,2.26,0.167,0.421,0.112 µM,0.455,145 nM,0.307,0.164 µM,0.447,0.225 µM,0.597,0.179 µM,0.337 µM,0.257,0.703
CC(C)c1ccc2c(c1)CCC1C2CCCC1(C)NCc1ccccc1 (stereo not given),2.17 µM,6.1,2.22 µM,4.63,13.5 µM,28.9,3.43,12.9,3.25 µM,12.1,1680 nM,3.55,4.69 µM,15.8,3.48 µM,13.6,1.97 µM,3.71 µM,2.43,5.61
OCc1ccc(N2CCc3ccc(F)cc3C2)cc1Cl,0.18 µM,11.2,0.101 µM,0.499,7.05 µM,20.7,0.0872,0.532,4.48 µM,30.5,12600 nM,26.2,0.124 µM,8.57,0.0301 µM,0.183,14.5 µM,30 µM,3.11,23.8
O=C1[C@H](Cc2ccc(O)cc2)N2C(=O)CCN(C(=O)NCc3ccccc3)[C@H]2CN1Cc1cccc2ccccc12,4.49 µM,> 55,2.34 µM,15.4,0.959 µM,13.5,1.73,7.23,1.67 µM,54.1,901 nM,12,0.985 µM,18.6,1.72 µM,29.1,3.61 µM,20.1 µM,3.15,> 46.8
COc1ccc(Cn2c(Br)c3c(c2-c2cc(OC)c(OC)c(OC)c2)CCc2sc(N)nc2-3)cc1,0.515 µM,7.65,0.626 µM,21.5,1.32 µM,16.9,1.89,10.2,1.51 µM,> 29.7,263 nM,1.09,1.3 µM,12.7,4.26 µM,> 100,1.36 µM,> 44.9 µM,2.17,> 49.8
CC[C@]12C=CCN3CC[C@@]4(c5ccc(OC)cc5N(C)[C@H]4[C@@](O)(C(=O)OC)[C@@H]1OC(=O)CCCN1CCN(CCCC(=O)O[C@@H]4[C@]5(CC)C=CCN6CC[C@@]7(c8ccc(OC)cc8N(C)[C@H]7[C@@]4(O)C(=O)OC)[C@@H]65)CC1)[C@@H]32,1.6 µM,3.21,1.6 µM,3.44,1.55 µM,3.36,1.11,2.5,0.483 µM,1.87,1780 nM,3.52,1.35 µM,2.86,1.82 µM,3.47,1.87 µM,3.61 µM,1.44,2.91
CNS(=O)(=O)Nc1nccc(Cc2c(C)c3ccc(Oc4ncccn4)cc3oc2=O)c1F,0.0194 µM and 0.0159 µM,> 100,16.1 µM and > 10 µM,> 100,33.8 µM and > 10 µM,> 100,> 62,> 100,53.4 µM and > 10 µM,> 100,22300 nM and > 10000 nM,> 100,17.4 µM and > 10 µM,> 100,0.0223 µM and 0.0145 µM,> 100,0.0116 µM and 0.0113 µM,1.63 µM and > 10 µM,> 85.9,> 100
C/C(=C\c1csc(C)n1)[C@@H]1C[C@@H]2O[C@]2(C)CCC[C@H](C)[C@H](O)[C@@H](C)C(=O)C(C)(C)[C@@H](O)CC(=O)N1,0.00016 µM,0.00042,0.000189 µM,0.000469,0.000112 µM,0.000184,0.000109,0.00036,0.000115 µM,0.000214,0.0757 nM,0.00019,0.000147 µM,0.000391,0.000262 µM,0.000447,0.00154 µM,0.011 µM,0.000182,0.000356
N#CC1=C(N)Oc2c(ccc3ccccc23)C1c1cc2ccccc2n2nnnc12 (stereo not given),0.467 µM,> 100,1.83 µM,> 100,2.85 µM,> 100,0.496,> 100,0.557 µM,> 100,407 nM,2.9,0.748 µM,> 100,2.76 µM,> 100,0.948 µM,> 100 µM,1.28,> 100
C=C(C)c1nc(Oc2ccccc2)nc(Oc2ccccc2)n1,,15.7,,21.6,,24.4,,22.8,,1.69,,2.73,,23.2,,30.2,,11.3 µM,,15
Oc1c(Br)cc(Cl)cc1C(c1cc(Cl)cc(Br)c1O)C(Cl)(Cl)Cl,3.28 µM,13,2.84 µM,11.1,2.86 µM,13,2.4,8.53,3.32 µM,9.95,1860 nM,6.07,2.18 µM,10.9,3.58 µM,13,3.74 µM,12.8 µM,2.96,10.3
O=C1NC(=O)N(S(=O)(=O)c2cc(C(=O)Nc3ccc(Cl)cc3)c(Cl)cc2S)S(=O)(=O)N1,20.4 µM,44.5,6.65 µM,55.7,24.8 µM,64.4,16.3,40.3,19.4 µM,47.6,21100 nM,50.6,15.1 µM,34.3,19.4 µM,35.3,16.2 µM,31.6 µM,17.9,33.7
Cn1cc(-c2ccc3c(c2)ncn3-c2cc(NS(=O)(=O)C3CC3)cc(-c3ccc(F)cc3F)c2)cn1,39.1 µM,> 100,7.39 µM,62.8,15.4 µM,> 100,23.4,> 100,2.8 µM,> 100,10600 nM,64.9,3.77 µM,> 100,14 µM,> 100,14.9 µM,> 100 µM,6.05,> 100
Cc1cccc(Oc2ccc(Nc3ncnc4ccc(NC(=O)CN(C)C)cc34)cc2Cl)c1,1.64 µM,3.05,1.08 µM,4.59,2.72 µM,11.3,1.81,3.35,2.37 µM,6.82,244 nM,1.98,1.68 µM,3.29,2.98 µM,12.9,1.71 µM,3.5 µM,1.59,3.16
